Laboratory results as given in BindingDB's records for patent US10155727 (Janssen Pharmaceuticals, 2018).
pIC50: −log10 of the molar value.

Molecular target: Glutamate receptor ionotropic, NMDA 2B (Rattus norvegicus, UniProt P35439+Q00960)
Assay: Inhibition of Specific Binding to the Rat NR1/NR2B Receptor
Method: After thawing on the day of the assay, a 5 ml membrane aliquot was centrifuged at 48000 g for 30 min at 4° C. The pellet was resuspended in 5 ml of 5 mM Tris/1 mM EDTA buffer, pH 7.4, homogenized for 30 sec at 20000 rpm with an Ultraturrax and centrifuged at 48000 g for 30 min at 4° C. This was repeated twice. […] Nonspecific binding was estimated in the presence of […]. The samples were incubated for 60 min. at 4° C.The incubation was terminated by filtration of the membrane preparations using Filtermat B (Pharmacia, Uppsala Sweden) and a Micro Cell Harvester (Skatron, Lier, Norway). The Filtermat B had been presoaked with 1% polyethylene imine and carefully washed with 50 mM Tris/HCl-buffer pH 7.7 after the filtration to separate free and bound radioactivity. […] For pipetting of the incubation mixture the robot Biomek2000 (Fa. Beckman) was used.

Chain of Glutamate receptor ionotropic, NMDA 2B (Q00960 whole entry, one chain of several): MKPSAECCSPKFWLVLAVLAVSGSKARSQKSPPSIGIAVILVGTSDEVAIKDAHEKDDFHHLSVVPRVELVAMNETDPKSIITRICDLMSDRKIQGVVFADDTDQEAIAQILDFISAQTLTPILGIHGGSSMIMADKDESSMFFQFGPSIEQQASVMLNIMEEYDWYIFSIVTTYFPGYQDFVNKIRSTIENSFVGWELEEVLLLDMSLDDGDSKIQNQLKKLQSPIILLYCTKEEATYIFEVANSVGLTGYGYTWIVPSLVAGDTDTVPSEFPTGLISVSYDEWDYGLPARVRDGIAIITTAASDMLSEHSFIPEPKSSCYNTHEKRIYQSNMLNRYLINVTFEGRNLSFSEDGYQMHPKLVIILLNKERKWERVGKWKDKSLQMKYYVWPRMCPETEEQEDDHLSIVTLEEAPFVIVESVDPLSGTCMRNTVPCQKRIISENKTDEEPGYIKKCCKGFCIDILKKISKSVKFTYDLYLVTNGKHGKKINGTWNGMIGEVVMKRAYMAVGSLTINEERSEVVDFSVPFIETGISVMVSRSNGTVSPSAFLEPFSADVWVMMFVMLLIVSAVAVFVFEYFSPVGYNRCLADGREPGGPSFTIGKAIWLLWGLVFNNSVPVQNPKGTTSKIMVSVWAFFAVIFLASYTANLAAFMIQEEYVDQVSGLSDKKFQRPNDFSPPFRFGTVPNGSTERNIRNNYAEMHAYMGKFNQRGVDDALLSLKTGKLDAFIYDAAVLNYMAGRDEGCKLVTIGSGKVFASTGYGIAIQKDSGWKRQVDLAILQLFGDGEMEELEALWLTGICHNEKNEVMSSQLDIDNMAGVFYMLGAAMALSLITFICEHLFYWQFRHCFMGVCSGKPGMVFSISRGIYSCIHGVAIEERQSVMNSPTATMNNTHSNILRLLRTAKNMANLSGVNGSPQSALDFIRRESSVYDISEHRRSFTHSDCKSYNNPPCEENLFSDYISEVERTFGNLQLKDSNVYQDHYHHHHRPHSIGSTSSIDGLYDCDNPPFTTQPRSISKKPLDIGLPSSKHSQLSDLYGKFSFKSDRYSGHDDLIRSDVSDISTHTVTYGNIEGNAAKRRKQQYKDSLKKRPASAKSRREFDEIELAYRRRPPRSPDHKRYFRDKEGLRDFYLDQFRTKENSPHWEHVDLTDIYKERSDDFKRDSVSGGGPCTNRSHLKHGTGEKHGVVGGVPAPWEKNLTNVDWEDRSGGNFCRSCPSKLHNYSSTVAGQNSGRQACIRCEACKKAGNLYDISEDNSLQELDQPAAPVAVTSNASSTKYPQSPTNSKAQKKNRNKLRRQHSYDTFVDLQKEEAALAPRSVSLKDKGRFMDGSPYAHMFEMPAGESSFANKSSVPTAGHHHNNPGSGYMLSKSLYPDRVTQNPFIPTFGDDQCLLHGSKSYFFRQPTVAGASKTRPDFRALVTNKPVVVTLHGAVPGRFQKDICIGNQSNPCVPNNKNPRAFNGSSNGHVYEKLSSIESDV

**Q.** With `Cn1ccc(Cn2cc(-c3cccc(C(F)(F)F)c3)cn2)n1` [US10155727, Example 49] as the compound, how does the pIC50 read?
**A.** 5.65

**Q.** With `Cc1cc(Cn2cc(-c3ccc(C(F)(F)F)cc3)cn2)n(C)n1` [US10155727, Example 51] as the compound, how does the pIC50 read?
**A.** 5.04
